This note sets out measurements from patent US9493436B2, “Tyrosine phosphatase inhibitors and uses thereof to modulate the activity of enzymes involved in the pathology of Mycobacterium tuberculosis” (priority 2011, dated 2016).

The target in one assay is Meg2 (Homo sapiens, UniProt P43378). The conditions noted are these: read-out: IC50 (μM) Meg2.
The target of the next assay is FAP1 (Homo sapiens, UniProt Q12923). Briefly: biochemical. It is filed as biochemical.
Assay [1] relates to Akt phosphorylation in Raw264.7 cells expressing mPTPB. It is filed as cell-based, mouse. The conditions noted are these: macrophage cells expressing mPTPB, increasing concentrations.
The next assay deals with LMWPTP (Homo sapiens, UniProt P24666). Briefly: PTP selectivity panel: LMWPTP. The assay is classed as biochemical.
Sequence of LMWPTP (P24666 whole entry, species assumed): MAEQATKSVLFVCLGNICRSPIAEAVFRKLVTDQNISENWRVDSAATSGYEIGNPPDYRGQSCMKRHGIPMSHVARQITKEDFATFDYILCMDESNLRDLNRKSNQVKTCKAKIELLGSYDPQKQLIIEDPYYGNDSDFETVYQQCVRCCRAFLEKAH
A further assay addresses T1, CD45 (Homo sapiens, UniProt P08575).
T1 sequence (P08575 26-1306): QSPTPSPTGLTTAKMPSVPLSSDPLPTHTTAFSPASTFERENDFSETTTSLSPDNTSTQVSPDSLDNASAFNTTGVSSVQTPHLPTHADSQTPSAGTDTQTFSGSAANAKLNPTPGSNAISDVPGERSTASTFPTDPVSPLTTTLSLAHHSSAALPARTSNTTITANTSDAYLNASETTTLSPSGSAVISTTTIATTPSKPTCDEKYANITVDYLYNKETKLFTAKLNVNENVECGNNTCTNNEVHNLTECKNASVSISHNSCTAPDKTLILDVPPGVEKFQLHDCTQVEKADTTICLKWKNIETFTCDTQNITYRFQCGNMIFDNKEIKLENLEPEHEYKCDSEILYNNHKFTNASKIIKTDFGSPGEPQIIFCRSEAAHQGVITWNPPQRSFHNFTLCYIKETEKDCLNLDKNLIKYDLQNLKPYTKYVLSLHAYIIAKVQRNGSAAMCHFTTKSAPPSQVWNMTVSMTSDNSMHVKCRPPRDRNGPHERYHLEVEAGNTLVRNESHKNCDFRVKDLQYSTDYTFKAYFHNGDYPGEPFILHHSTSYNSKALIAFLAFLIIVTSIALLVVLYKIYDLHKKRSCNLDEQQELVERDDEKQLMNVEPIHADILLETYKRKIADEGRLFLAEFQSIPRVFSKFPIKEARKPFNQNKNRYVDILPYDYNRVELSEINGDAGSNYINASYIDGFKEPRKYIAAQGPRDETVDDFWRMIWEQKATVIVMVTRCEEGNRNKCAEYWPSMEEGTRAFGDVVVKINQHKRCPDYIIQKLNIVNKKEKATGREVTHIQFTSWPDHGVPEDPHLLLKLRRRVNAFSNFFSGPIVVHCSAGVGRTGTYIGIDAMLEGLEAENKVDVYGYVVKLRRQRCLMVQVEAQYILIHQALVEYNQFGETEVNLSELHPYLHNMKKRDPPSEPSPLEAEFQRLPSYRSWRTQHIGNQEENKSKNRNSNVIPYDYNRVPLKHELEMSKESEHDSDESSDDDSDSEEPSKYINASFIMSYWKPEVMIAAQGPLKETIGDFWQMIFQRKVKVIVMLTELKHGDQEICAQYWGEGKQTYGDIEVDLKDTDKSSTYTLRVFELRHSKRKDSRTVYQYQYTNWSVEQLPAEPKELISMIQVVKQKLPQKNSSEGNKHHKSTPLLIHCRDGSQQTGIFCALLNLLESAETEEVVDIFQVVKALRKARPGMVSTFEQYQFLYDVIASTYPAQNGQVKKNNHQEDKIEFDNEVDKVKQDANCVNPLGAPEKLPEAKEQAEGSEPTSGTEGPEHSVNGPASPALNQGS
The assay can be described thus: biochemical. The assay is classed as biochemical.

For another assay, the target named is SHP1 (Homo sapiens, UniProt P29350). It is filed as biochemical.
Sequence of SHP1 (P29350 whole entry): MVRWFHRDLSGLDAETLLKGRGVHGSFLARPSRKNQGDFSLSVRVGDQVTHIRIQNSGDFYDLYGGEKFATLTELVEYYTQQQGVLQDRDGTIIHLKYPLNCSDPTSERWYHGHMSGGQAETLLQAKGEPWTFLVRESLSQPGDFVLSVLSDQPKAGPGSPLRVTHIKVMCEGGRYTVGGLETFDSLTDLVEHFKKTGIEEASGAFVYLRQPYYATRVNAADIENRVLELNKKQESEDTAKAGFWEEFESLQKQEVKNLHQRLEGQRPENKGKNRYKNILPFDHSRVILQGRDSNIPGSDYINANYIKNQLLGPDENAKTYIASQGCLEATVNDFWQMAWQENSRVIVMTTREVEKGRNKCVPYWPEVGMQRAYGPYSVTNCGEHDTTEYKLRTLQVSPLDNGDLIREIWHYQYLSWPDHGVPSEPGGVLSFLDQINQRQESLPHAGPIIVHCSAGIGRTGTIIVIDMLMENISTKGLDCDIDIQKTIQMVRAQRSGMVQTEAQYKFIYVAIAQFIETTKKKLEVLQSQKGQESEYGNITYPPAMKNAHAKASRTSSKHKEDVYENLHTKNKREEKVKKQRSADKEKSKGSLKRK
Another assay concerns the target T2, VHX (Homo sapiens, UniProt Q9NRW4).
T2 sequence (Q9NRW4 1-184): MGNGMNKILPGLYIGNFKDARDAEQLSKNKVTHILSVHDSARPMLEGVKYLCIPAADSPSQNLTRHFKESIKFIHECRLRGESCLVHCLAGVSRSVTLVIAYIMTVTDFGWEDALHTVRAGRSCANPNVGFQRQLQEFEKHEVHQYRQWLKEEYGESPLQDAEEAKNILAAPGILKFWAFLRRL
The assay can be described thus: biochemical. It is filed as biochemical.

A further assay concerns the target T3, PTP1B (Homo sapiens, UniProt P18031).
T3 sequence (P18031 1-435): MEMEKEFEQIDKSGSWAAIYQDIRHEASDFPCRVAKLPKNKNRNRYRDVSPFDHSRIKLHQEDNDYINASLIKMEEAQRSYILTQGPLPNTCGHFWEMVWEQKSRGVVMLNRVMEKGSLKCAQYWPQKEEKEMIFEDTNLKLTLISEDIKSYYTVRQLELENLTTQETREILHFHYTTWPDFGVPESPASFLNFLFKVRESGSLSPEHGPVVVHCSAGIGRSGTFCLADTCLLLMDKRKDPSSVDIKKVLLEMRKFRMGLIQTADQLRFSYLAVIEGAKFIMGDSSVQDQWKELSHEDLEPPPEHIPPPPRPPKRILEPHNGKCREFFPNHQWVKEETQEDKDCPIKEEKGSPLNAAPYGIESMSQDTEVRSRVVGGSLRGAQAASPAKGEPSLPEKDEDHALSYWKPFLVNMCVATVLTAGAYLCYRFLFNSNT
The assay can be described thus: biochemical. The assay is classed as biochemical.

Assay [2] deals with IL-6 secretion in cells expressing mPTPB. Briefly: IL-6 secretion in cells expressing mPTPB. It is filed as cell-based. The conditions noted are these: especially at 120 and 240 nM. An excerpt:
As explained above, ERK phosphorylation is important in the cellular secretion pathway of IL-6. However, mPTPB blocks or inhibits the phosphorylation of ERK which reduces and potentially prevents IL-6 secretion altogether.

In a further assay the target is T4, HePTP (Homo sapiens, UniProt P35236).
T4 sequence (P35236 1-360): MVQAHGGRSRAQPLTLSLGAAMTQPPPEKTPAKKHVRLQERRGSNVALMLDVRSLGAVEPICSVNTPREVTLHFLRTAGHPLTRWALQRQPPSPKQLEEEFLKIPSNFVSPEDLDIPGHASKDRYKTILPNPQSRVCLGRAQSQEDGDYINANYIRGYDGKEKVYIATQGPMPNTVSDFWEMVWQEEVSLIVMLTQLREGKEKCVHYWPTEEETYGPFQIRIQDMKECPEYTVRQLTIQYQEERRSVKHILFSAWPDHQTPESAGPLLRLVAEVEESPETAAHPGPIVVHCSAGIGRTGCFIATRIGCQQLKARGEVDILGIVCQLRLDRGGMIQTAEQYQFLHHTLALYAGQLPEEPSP
Briefly: biochemical. The assay is classed as biochemical.

A further assay deals with SHP2-D2C (Homo sapiens, UniProt Q06124). The assay can be described thus: biochemical. It is filed as biochemical.
Sequence of SHP2-D2C (Q06124 224-528 limits assumed): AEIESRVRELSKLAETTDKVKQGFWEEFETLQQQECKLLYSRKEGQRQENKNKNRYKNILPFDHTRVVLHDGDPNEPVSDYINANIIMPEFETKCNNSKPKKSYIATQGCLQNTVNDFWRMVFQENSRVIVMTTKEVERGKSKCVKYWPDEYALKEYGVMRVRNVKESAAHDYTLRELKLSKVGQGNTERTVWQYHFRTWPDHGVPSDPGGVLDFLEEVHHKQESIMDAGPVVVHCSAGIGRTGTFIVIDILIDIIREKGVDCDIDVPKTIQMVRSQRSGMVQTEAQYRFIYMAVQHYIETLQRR
The next assay has as its target mPTPA (Mycobacterium tuberculosis, UniProt P9WIA1). Briefly: PTP selectivity panel: mPTPA. The assay is classed as biochemical.

In general, IC50 refers to the concentration that gives 50% inhibition.

Sequence of FAP1 (Q12923 whole entry, species assumed): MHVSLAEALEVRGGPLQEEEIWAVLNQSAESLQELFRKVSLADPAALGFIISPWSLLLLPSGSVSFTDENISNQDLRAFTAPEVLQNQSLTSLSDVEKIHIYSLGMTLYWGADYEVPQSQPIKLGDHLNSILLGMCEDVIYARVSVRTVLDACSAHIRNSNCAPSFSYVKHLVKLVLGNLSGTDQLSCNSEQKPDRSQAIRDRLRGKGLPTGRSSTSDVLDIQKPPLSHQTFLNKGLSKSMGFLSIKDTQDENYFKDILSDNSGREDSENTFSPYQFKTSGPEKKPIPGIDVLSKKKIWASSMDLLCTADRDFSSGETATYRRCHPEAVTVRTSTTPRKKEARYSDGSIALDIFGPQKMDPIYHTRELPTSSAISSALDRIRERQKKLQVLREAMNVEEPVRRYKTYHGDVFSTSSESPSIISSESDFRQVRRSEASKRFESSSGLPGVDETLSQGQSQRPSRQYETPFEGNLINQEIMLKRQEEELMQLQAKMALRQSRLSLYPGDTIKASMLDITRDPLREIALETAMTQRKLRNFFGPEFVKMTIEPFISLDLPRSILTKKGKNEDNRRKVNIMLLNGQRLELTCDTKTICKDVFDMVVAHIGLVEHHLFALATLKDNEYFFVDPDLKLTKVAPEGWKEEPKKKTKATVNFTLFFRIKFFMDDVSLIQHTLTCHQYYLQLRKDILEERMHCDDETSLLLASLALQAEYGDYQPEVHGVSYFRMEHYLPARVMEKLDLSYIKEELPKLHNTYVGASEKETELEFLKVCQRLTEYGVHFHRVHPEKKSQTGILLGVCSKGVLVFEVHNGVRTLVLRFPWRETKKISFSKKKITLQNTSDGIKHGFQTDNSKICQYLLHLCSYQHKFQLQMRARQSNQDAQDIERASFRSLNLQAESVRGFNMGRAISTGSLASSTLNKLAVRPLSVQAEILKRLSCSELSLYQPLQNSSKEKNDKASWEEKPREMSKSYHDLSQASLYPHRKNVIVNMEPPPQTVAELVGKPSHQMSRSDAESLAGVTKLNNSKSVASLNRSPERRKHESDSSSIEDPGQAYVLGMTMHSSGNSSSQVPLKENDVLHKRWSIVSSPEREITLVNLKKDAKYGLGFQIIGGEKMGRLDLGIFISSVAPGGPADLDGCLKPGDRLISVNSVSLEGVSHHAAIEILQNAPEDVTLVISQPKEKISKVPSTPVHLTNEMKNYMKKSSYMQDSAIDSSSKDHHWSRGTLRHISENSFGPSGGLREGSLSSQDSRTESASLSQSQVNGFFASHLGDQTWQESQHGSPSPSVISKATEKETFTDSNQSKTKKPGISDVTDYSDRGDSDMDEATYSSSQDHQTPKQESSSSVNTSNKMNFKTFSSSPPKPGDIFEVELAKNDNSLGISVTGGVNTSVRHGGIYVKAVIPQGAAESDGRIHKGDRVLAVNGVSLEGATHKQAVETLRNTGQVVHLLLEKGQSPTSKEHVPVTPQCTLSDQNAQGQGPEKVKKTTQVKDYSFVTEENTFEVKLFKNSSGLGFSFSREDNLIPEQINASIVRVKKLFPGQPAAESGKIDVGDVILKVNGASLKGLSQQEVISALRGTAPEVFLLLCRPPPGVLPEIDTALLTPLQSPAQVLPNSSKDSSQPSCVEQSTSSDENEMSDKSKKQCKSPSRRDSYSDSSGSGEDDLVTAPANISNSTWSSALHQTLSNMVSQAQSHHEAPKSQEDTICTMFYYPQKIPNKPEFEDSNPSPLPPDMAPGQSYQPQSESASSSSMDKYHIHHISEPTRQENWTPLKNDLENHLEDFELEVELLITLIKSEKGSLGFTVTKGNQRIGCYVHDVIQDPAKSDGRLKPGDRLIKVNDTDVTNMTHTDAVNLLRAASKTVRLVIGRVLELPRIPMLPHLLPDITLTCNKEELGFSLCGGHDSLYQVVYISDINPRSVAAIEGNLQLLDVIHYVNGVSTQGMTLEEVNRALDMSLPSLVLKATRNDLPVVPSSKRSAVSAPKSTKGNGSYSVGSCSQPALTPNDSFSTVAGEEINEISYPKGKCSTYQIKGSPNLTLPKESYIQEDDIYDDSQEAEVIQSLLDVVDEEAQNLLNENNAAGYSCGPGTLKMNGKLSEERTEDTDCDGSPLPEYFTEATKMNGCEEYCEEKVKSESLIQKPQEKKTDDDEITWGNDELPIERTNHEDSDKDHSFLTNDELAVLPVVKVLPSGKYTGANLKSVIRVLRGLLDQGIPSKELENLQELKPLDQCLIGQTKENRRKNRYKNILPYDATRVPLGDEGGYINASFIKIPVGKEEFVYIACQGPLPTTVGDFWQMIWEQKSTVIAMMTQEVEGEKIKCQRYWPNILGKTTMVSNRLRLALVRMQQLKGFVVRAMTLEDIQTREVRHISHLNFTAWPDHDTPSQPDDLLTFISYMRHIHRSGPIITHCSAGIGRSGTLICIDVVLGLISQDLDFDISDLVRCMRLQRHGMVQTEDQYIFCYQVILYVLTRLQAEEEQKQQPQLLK
Sequence of mPTPA (P9WIA1 whole entry): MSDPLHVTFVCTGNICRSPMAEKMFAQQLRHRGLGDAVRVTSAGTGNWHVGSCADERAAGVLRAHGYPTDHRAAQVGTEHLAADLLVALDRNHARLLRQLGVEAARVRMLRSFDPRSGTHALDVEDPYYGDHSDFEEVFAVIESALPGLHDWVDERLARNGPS
Sequence of Meg2 (P43378 whole entry): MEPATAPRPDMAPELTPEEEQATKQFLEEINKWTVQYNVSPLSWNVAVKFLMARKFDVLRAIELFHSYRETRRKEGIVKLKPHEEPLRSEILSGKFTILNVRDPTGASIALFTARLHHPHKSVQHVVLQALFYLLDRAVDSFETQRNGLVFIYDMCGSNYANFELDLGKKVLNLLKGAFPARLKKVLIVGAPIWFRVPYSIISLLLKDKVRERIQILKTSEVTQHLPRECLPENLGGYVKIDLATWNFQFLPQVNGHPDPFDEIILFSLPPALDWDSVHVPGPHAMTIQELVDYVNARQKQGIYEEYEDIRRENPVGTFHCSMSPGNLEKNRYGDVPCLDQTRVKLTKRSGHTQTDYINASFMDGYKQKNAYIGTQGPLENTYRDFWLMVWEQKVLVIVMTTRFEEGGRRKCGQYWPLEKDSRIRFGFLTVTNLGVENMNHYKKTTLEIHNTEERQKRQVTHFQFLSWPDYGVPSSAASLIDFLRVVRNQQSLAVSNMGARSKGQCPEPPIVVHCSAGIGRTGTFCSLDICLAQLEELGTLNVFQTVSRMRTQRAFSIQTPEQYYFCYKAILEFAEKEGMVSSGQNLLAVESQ

In the case of `O=C(O)c1cc2c(C#Cc3cccc(C(F)(F)F)c3)c(-c3ccccc3)oc2cc1O` [32 (L01Z08)], the IC50 on Meg2 was 4.3 ± 0.5 µM; on FAP1, 1.3 ± 0.2 µM; against LMWPTP, 4.3 ± 0.6 µM; on CD45 it was 4.2 ± 0.5 µM; at SHP1, 2.3 ± 0.3 µM; against VHX it was 1.4 ± 0.2 µM. At PTP1B, this molecule had an IC50 of 6.7 ± 0.7 µM. In addition, the “AKT phosphorylation / Akt activation” value in assay [1] is “phosphorylation decreasing with treatments of increasing concentrations”. Also, the IL-6 secretion entry in assay [2] is “returned to normal or near normal IL-6 secretion levels”.
In the case of `Cn1c(-c2ccccc2C(F)(F)F)c(I)c2cc(C(=O)O)c(O)cc21` [Compound 207a, 6-hydroxy-3-iodo-1-methyl-2-(2-(trifluoromethyl)phenyl)-1H-indole-5-carboxylic acid], the IC50 against HePTP stood at 86 ± 6 µM; at FAP1, 84 ± 1 µM; on SHP2-D2C, 87 ± 4 µM; on mPTPA, 82 ± 1 µM; against CD45, 227 ± 4 µM; on VHX, 56 ± 1 µM. At PTP1B, this molecule displayed an IC50 of 700 ± 100 µM.
